Experimental data as given in patent US4123530A, “N-cyclohexyl-piperazino acetamides and propionamides” (Camillo Corvi S.p.A., priority 1976, dated 1978).

Experiments:
intestine peristaltis = experiment: spasmolytic activity in vivo: activity on intestine peristaltis (mouse)
Text: Activity of C/63 on intestine peristaltis (mouse)

Guinea-pig Ileus = experiment: spasmolytic activity in vitro, Guinea-pig Ileus
Wistar rats = experiment: Sub-chronic toxicity (30 days per ora); format: in vivo; details: oral 400 mg/kg
Experimental: (2) Sub-chronic toxicity (C/63)
Eighty Wistar rats were divided in 4 groups of twenty each (10 males and 10 fewales). Compound (C/63) was given per ora to three groups of animals for a period of 30 days in quantities of 100, 200 and 400 mg/kg.

[1] = tested on: Ulcer due to activity prevention; experiment: Anti-ulcer activity: Ulcer due to activity prevention (Rossi & Coll.); format: in vivo
Shay ulcer = experiment: Anti-ulcer activity: Shay ulcer; format: in vivo; details: 300 mg/kg os
[2] = tested on: Phenylbutazone-histamine ulcer; experiment: Anti-ulcer activity: Phenylbutazone-histamine ulcer; format: in vivo
Reserpine ulcer = experiment: Anti-ulcer activity: Reserpine ulcer with rats; format: in vivo
acute toxicity, mice = details: mouse, in vivo, read-out: DL/50 (the source's name)
Withdrawal ulcer = experiment: Anti-ulcer activity: Withdrawal ulcer; format: in vivo; details: 100 mg/kg os
acute toxicity, rats = details: rat, in vivo, po, os, read-out: DL/50 (the source's name)

Row | SMILES | Inhibition % (intestine peristaltis; 100 mg/kg os) | Inhibition % (intestine peristaltis; 200 mg/kg os) | DE50 against Ach. (Guinea-pig Ileus; against Ach.) | DE50 against BaCl2 (Guinea-pig Ileus; against BaCl2) | DE50 against histamine (Guinea-pig Ileus; against histamine) | appearance of damages due to toxicity (bloodcrasis, biochemical blood analysis, weight, histological examination of the organs) (Wistar rats) | Inhibition % ([1]; 50 mg/kg os) | Inhibition % ([1]; 100 mg/kg os) | Inhibition % ([1]; 200 mg/kg os) | Inhibition % (Shay ulcer) | Inhibition % ([2]; 25 mg/kg os) | Inhibition % ([2]; 50 mg/kg os) | Inhibition % ([2]; 100 mg/kg os) | Inhibition % (Reserpine ulcer; 300 mg/kg os) | LD50 (acute toxicity, mice; iv) | LD50 (acute toxicity, mice; po, os) | Inhibition % (Withdrawal ulcer) | LD50 (acute toxicity, rats) | anticholinergic activity (anticholinergic activity) | Inhibition % (Reserpine ulcer; 100 mg/kg os)
1 | O=C(CN1CCNCC1)NC1CCCCC1 [C/63, N-[1-piperazinylacetyl]-cyclohexylamine] | 6% | 23% | > 40 µg/mL | > 40 µg/mL | > 40 µg/mL | no appearance of damages due to the toxicity of the drug | 19% | 32% | 45% | 72% | 10% | 43% | 72% | 25% | 271 mg/kg | 1970 mg/kg | 33% | 3900 mg/kg | – | –
2 | CC1CCC(NC(=O)CN2CCNCC2)CC1 (stereo not drawn) [C/82, N-(1-piperazinylacetyl)-4-methyl-cyclohexylamine] | – | – | – | – | – | – | – | 30% | 35% | – | – | 33% | 60% | 70% | – | 1790 mg/kg | 30% | – | no anticholinergic activity | 47%
